How the values were obtained:
Format in all cases: in vivo, rat
[1] = test system: spontaneously hypertensive (SHR) rats; test: Mean arterial pressure (MAP), daily for 14 days, in conscious catheterized hypertensive rats
Procedure: (§1) Additionally, daily soy isoflavone (SoyLife®, Acatris, Minneapolis, Minn.) supplementation was administered with BCX to both normotensive (WKY) and spontaneously hypertensive (SHR) rats to determine any beneficial hemodynamic contributions of soy to genetic hypertension. Animals receiving daily oral doses of BCX or BCX combined with the soy extract and comparisons of specific hemodynamic parameters (heart rate and blood pressure) were monitored for a period of two weeks in SHR rats and their genetically WKY counterparts. Plasma hydrogen peroxide concentrations were evaluated and show the effects of BCX on reactive oxygen species and their purported contribution to elevations in blood pressure in this hypertensive animal paradigm (Wilcox C. S., Reactive oxygen species: roles in blood pressure and kidney function. Curr Hypertens Rep. 2002 April; 4(2):160-6).
(§2) 1. Three days prior to the beginning of experiments, femoral arterial and venous catheters were implanted for the measurement of blood pressure and heart rate and for the collection of blood samples for the analysis of plasma CRP and cholesterol. Animals were housed in metabolic cages for chronic daily analysis for the remainder of the protocol.
(§3) SHR and WKY rats (Harlan, Indianapolis, Ind.) at age 10 weeks and weighing ˜250 g were used as experimental subjects and monitored for a two week period. All experimental protocols were performed in conscious, unrestrained animals. The animals were individually housed in wire mesh cages in temperature-controlled rooms (23° C.) with a 12-hour light/dark cycle. Each animal was allowed free access to isoflavone reduced chow (Harlan, Indianapolis, Ind.) and distilled water throughout the protocol(s). In addition to ad libitum food and water, animals were dosed daily by oral gavage with BCX (1.0 mg/kg, in safflower oil) or BCX+soy (1.0 mg BCX/kg+80 mg isoflavones/kg, in safflower oil). BCX dosage levels were based on the amount of BCX humans consume when eating according to the Dietary Guidelines for Americans: 0.5-1.0 mg per day (United States Department of Health and Human Services and United States Department of Agriculture. Dietary Guidelines for Americans 2005. Jan. 12, 2005. http://www.healthierus.gov/dietaryguidelines/; Centers for Disease Control and Prevention. National Center for Health Statistics. National Health and Nutrition Examination Survey Data 2001-2002. http://www.cdc.gov/nchs/about/major/nhanes/nhanes01-02.htm).
All surgical procedures were performed in animals anesthetized with sodium pentobarbital (Nembutal®, Abbott Laboratories) at a dose of 50 mg/kg, i.p. In addition, all surgery was performed under sterile conditions in a location in the laboratory dedicated for that purpose and according to those procedures adopted by the IACUC at Des Moines University-Osteopathic Medical Center. The implantations of femoral arterial and venous catheters were performed three days prior to any experimentation. The arterial and venous catheters were constructed from silicone and Tygon® tubing (Saint-Gobain Performance Plastics Corporation). The smaller silicone tubing was placed within the vessel, via the external iliac artery, to minimize tissue irritation and reaction. Normal body temperature was maintained during anesthesia via an electronically maintained dermal pad. The animals were shaved at the top of the head, back of the neck and the inner left leg. The silicone tips were inserted through a 3.0 cm incision made on the inner left leg for cannulation of the internal iliac vein and femoral artery; the arterial catheter was sutured to the leg in a manner preventing occlusion of the catheter during normal rat movement. Excess catheter was directed subcutaneously and externalized through a 2.5 cm incision made in the dermis overlying bregma. The cranial incision was made with a scalpel after which three 0.19″ jeweler's screws were attached to the cranium in a 1.0 cm^2 area which encompasses bregma. […]

[2] = test system: normotensive (WKY) rats; test: Mean arterial pressure (MAP), daily for 14 days, in conscious catheterized normotensive rats; settings: for Blood pressure, Significance, comparison over 14 days: WKY rats
Procedure: as §1, §2
(§4) SHR and WKY rats (Harlan, Indianapolis, Ind.) at age 10 weeks and weighing ˜250 g were used as experimental subjects and monitored for a two week period. All experimental protocols were performed in conscious, unrestrained animals. The animals were individually housed in wire mesh cages in temperature-controlled rooms (23° C.) with a 12-hour light/dark cycle. Each animal was allowed free access to isoflavone reduced chow (Harlan, Indianapolis, Ind.) and distilled water throughout the protocol(s). In addition to ad libitum food and water, animals were dosed daily by oral gavage with BCX (1.0 mg/kg, in safflower oil) or BCX+soy (1.0 mg BCX/kg+80 mg isoflavones/kg, in safflower oil). […]

[3] = test system: spontaneously hypertensive (SHR) rats; test: Heart rate (HR), daily for 14 days, in conscious catheterized hypertensive rats; settings: for Effect on heart rate (in words): vs. control fed food only (SHR-Control)
Procedure: as §1, §2, §3
All surgical procedures were performed in animals anesthetized with sodium pentobarbital (Nembutal®, Abbott Laboratories) at a dose of 50 mg/kg, i.p. In addition, all surgery was performed under sterile conditions in a location in the laboratory dedicated for that purpose and according to those procedures adopted by the IACUC at Des Moines University-Osteopathic Medical Center. The implantations of femoral arterial and venous catheters were performed three days prior to any experimentation. The arterial and venous catheters were constructed from silicone and Tygon® tubing (Saint-Gobain Performance Plastics Corporation). The smaller silicone tubing was placed within the vessel, via the external iliac artery, to minimize tissue irritation and reaction. Normal body temperature was maintained during anesthesia via an electronically maintained dermal pad. The animals were shaved at the top of the head, back of the neck and the inner left leg. […]

[4] = test system: normotensive (WKY) rats; test: Heart rate (HR), daily for 14 days, in conscious catheterized normotensive rats
Procedure: as §1, §2, §4

[5] = vs. SHR-Control (rat chow only)
[6] = vs. SHR-Saff (safflower oil only)
[7] = vs. WKY-Saff (safflower oil only)

SMILES: CC1=C(/C=C/C(C)=C/C=C/C(C)=C/C=C/C=C(C)/C=C/C=C(C)/C=C/C2=C(C)C[C@@H](O)CC2(C)C)C(C)(C)CCC1 [BCX, β-cryptoxanthin]
- Days with statistically significant difference in blood pressure ([1]; vs. SHR controls, p<0.05): 4 to 13 days
- Blood pressure, Significance, comparison over 14 days [1, 5]: Yes
- Blood pressure, Significance, comparison over 14 days [1, 6]: No
- Effect on mean arterial pressure / blood pressure (in words) ([1]; vs. control fed food only (SHR-Control)): statistically decreased the blood pressure
- Effect on mean arterial pressure / blood pressure (in words) ([1]; vs. control fed food only (SHR-Control), listed as β-cryptoxanthin): significantly lower
- Effect on mean arterial pressure / blood pressure (in words) ([1]; vs. safflower oil control (SHR-Saff)): significantly lower
- Change in blood pressure (in words) ([2]; WKY normotensive rats, over 14 days of supplementation): did not show any significant blood pressure change
- Blood pressure, Significance, comparison over 14 days ([2]; vs. WKY-Control): No
- Blood pressure, Significance, comparison over 14 days [2, 7]: No
- Heart rate, Significance, comparison over 14 days [3, 5]: Yes
- Days with statistically significant lower heart rate ([3]; vs. SHR-Control, p<0.05): 6 to 13 days
- Heart rate, Significance, comparison over 14 days [3, 6]: No
- Effect on heart rate (in words) [3]: statistically decreased the heart rate
- Effect on heart rate (in words) ([3]; listed as β-cryptoxanthin): significantly lower
- Effect on heart rate (in words) ([4]; vs. WKY-Control): statistical decrease in heart rate
- Heart rate, Significance, comparison over 14 days ([4]; vs. WKY-Control): Yes
- Heart rate, Significance, comparison over 14 days [4, 7]: No
